Source: patent US20090304797A1, “Process for the Preparation of Micronized Valsartan” (priority 2006, published 2009)

Assay: Particle size distribution
Assay type: physicochemical
[1] = solid obtained by the process of the example
[2] = crystallized using ethyl acetate as taught in U.S. Pat. No. 5,399,578, after passing through 30 mesh sieve

Row | Particle size distribution d10 [1] | Particle size distribution d50 [1] | Particle size distribution d90 [1] | Particle size distribution d10 [2] | Particle size distribution d50 [2] | Particle size distribution d90 [2] | SMILES
1 | 1.869 μ | 18.401 μ | 202 μ |  |  |  | CCCCC(=O)N(Cc1ccc(-c2ccccc2-c2nnn[nH]2)cc1)[C@H](C(=O)O)C(C)C [Example 5 A, Valsartan]
2 | 0.71 μ | 2.687 μ | 8.42 μ |  |  |  | CCCCC(=O)N(Cc1ccc(-c2ccccc2-c2nnn[nH]2)cc1)[C@H](C(=O)O)C(C)C [Example 5 B, Valsartan]
3 |  |  |  | 5.039 μ | 77.29 μ | 383.55 μ | CCCCC(=O)N(Cc1ccc(-c2ccccc2-c2nnn[nH]2)cc1)[C@H](C(=O)O)C(C)C [Valsartan, N-(1-Oxopentyl)-N-[[2′-(1H-tetrazol-5-yl)[1,1′-biphenyl]-4-yl]methyl]-L-valine]

The next lines start with the compound.

Row | SMILES | Particle size distribution d10 [1] | Particle size distribution d50 [1] | Particle size distribution d90 [1] | Particle size distribution d10 [2] | Particle size distribution d50 [2] | Particle size distribution d90 [2]
4 | CCCCC(=O)N(Cc1ccc(-c2ccccc2-c2nnn[nH]2)cc1)[C@H](C(=O)O)C(C)C [Example 1, Valsartan] | 1.906 μ | 4.134 μ | 7.554 μ |  |  | 
5 | CCCCC(=O)N(Cc1ccc(-c2ccccc2-c2nnn[nH]2)cc1)[C@H](C(=O)O)C(C)C [Example 2, Valsartan] | 1.686 μ | 4.420 μ | 8.684 μ |  |  | 
6 | CCCCC(=O)N(Cc1ccc(-c2ccccc2-c2nnn[nH]2)cc1)[C@H](C(=O)O)C(C)C [Example 3, Valsartan] | 1.5421 μ | 3.850 μ | 7.869 μ |  |  | 
7 | CCCCC(=O)N(Cc1ccc(-c2ccccc2-c2nnn[nH]2)cc1)[C@H](C(=O)O)C(C)C [Example 4, Valsartan] | 2.011 μ | 4.636 μ | 8.611 μ |  |  | 
